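Briefly, cells in 96-well plates were exposed to five compound concentrations for 48 h, and endpoints were estimated by linear interpolation. GI50 is the concentration that inhibits growth by half.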 Activity calls are given as the source filed them. Rule as the data show it: active = GI50 up to about 1.1 µM and inactive = higher.
Assays:
Assay in all cases: growth of human tumour cells (NCI), 48 h
[1] = tested on: A498
[2] = tested on: ACHN
[3] = tested on: CCRF-CEM
[4] = tested on: COLO 205
[5] = tested on: HCT-116
[6] = tested on: HOP-92
[7] = tested on: IGROV-1
[8] = tested on: KM12
[9] = tested on: LOX IMVI
[10] = tested on: MOLT-4
[11] = tested on: NCI-H23
[12] = tested on: NCI-H460
[13] = tested on: RXF 393
[14] = tested on: SF-539
[15] = tested on: SNB-75
[16] = tested on: SW-620
[17] = tested on: TK-10
[18] = tested on: U-251
[19] = tested on: UACC-257

Measured: GI50

Cc1ccc(NC(=O)C(=O)C(C(=O)c2ccc3ccccc3c2)C2OC(=O)c3ccccc32)c(C)c1 (stereo not given)
inactive: [1] 6.1 µM | [2] 23.6 µM | [3] 8.55 µM | [4] 11.1 µM | [5] 6.35 µM | [6] 7.03 µM | [7] 10.9 µM | [8] 16.4 µM | [9] 10.6 µM | [10] 3.31 µM | [11] 8.13 µM | [12] 5.57 µM | [13] 3.24 µM | [14] 4.84 µM | [15] 9.14 µM | [16] 5.71 µM | [17] 20.3 µM | [18] 3.64 µM | [19] 12.8 µM

O=Cc1c(O)c(C(=O)Nc2ccc3[nH]c(=O)[nH]c3c2)cc2ccccc12
inactive: [1] > 100 µM | [2] > 100 µM | [3] > 100 µM | [4] > 100 µM | [5] > 100 µM | [6] > 100 µM | [7] > 100 µM | [8] > 100 µM | [9] > 100 µM | [10] > 100 µM | [11] > 100 µM | [12] > 100 µM | [13] > 100 µM | [14] > 100 µM | [15] > 100 µM | [16] > 100 µM | [17] > 100 µM | [18] > 100 µM | [19] > 100 µM

COc1cc(C(=O)C/C(CCCC(=O)Nc2ccccc2[N+](=O)[O-])=N/NC(=O)c2cc3ccccc3cc2O)ccc1O
inactive: [1] > 100 µM | [2] 28.9 µM | [3] 8 µM | [4] 21.7 µM | [5] 34.4 µM | [6] 32.7 µM | [7] 34.4 µM | [8] 24.5 µM | [9] 23.9 µM | [10] 26.1 µM | [11] 41.4 µM | [12] 40.6 µM | [13] > 71 µM | [14] 37.9 µM | [15] > 91.2 µM | [16] 46.5 µM | [17] 52.5 µM | [18] 52.1 µM | [19] 27.7 µM

O=C(c1ccc(Cl)cc1)c1ccc(OCCSCCCCCCCCCCSCCOc2ccc(C(=O)c3ccc(Cl)cc3)cc2)cc1
inactive: [1] > 100 µM | [2] > 100 µM | [3] > 100 µM | [4] > 100 µM | [6] > 100 µM | [7] > 100 µM | [8] > 100 µM | [9] > 100 µM | [10] > 100 µM | [11] > 100 µM | [12] > 100 µM | [13] > 100 µM | [15] > 100 µM | [16] > 100 µM | [17] > 100 µM | [18] > 100 µM | [19] > 100 µM

O=C1COc2cc(NC(=S)Nc3ccccc3)ccc2N1
inactive: [2] > 100 µM | [3] > 100 µM | [4] > 100 µM | [5] > 100 µM | [6] > 100 µM | [7] > 100 µM | [8] > 100 µM | [9] > 100 µM | [10] > 100 µM | [11] > 100 µM | [12] > 100 µM | [13] > 100 µM | [14] > 100 µM | [15] > 100 µM | [16] > 100 µM | [17] > 100 µM | [18] > 100 µM | [19] > 100 µM

COc1ccccc1N1C(=O)CSC1c1c[nH]c2ccccc12 (stereo not given)
inactive: [1] > 100 µM | [2] > 100 µM | [4] > 100 µM | [5] > 100 µM | [6] > 100 µM | [7] > 100 µM | [8] > 100 µM | [10] > 100 µM | [11] > 100 µM | [12] > 100 µM | [13] > 100 µM | [14] > 100 µM | [15] 27.6 µM | [16] > 100 µM | [17] > 100 µM | [18] > 100 µM | [19] > 100 µM

COc1cccc(/C=N\NC(=O)C(C)SC(C)C(=O)N/N=C/c2cccc(OC)c2)c1 (stereo not given)
inactive: [1] 13 µM | [2] 18.9 µM | [3] 31.9 µM | [4] 24.6 µM | [5] 18.4 µM | [6] 20.8 µM | [7] 20.3 µM | [8] 31.5 µM | [9] > 10 µM | [10] 39.4 µM | [11] 23.8 µM | [12] 14.9 µM | [13] 11.1 µM | [14] > 89.1 µM | [15] 16.9 µM | [16] 57.8 µM | [17] 19.1 µM | [18] 18 µM | [19] 59.3 µM

O=C1NC2(CCCCC2)C2CCCCC=C12 (stereo not given)
inactive: [1] > 100 µM | [2] > 100 µM | [3] > 100 µM | [4] > 100 µM | [5] > 100 µM | [6] > 100 µM | [7] > 100 µM | [8] > 100 µM | [9] > 100 µM | [10] > 100 µM | [11] > 100 µM | [12] > 100 µM | [13] > 100 µM | [14] > 100 µM | [15] > 100 µM | [16] > 100 µM | [17] > 100 µM | [18] > 100 µM | [19] > 100 µM

Cc1ccc(NC2=CC(=O)C(NO)c3ccccc32)cc1 (stereo not given)
inactive: [1] 16.3 µM | [2] 2.84 µM | [4] 2.81 µM | [5] 2.47 µM | [6] 2.7 µM | [7] 1.53 µM | [8] 3.32 µM | [9] 2.93 µM | [10] 2.74 µM | [11] 1.64 µM | [12] 3.22 µM | [13] 2.62 µM | [14] 3.01 µM | [15] 3.37 µM | [16] 3.24 µM | [17] 16.8 µM | [18] 3.15 µM | [19] 1.73 µM

CCOc1ccc2c(c1)[n+]([O-])c(-c1ccc([N+](=O)[O-])cc1)c(N)[n+]2[O-]
inactive: [1] > 100 µM | [2] > 100 µM | [3] 49.7 µM | [4] > 100 µM | [5] 62.2 µM | [6] > 100 µM | [7] > 100 µM | [8] > 100 µM | [10] 52.2 µM | [11] > 100 µM | [12] > 100 µM | [13] > 100 µM | [14] > 100 µM | [15] 66.4 µM | [16] > 100 µM | [18] > 100 µM | [19] > 100 µM

CNC(=O)OCc1cc2ccncc2c2c1[nH]c1ccccc12
inactive: [2] 5.47 µM | [3] 7.4 µM | [4] > 28.3 µM | [5] 5.16 µM | [6] > 100 µM | [7] > 26.9 µM | [8] 5.09 µM | [9] > 22.1 µM | [10] 4.05 µM | [11] > 100 µM | [12] > 20.7 µM | [13] 2.55 µM | [14] > 42.6 µM | [15] > 40.4 µM | [16] 6.01 µM | [17] > 100 µM | [18] > 39.7 µM | [19] > 100 µM

Reference: ChEMBL document CHEMBL1201862, “PubChem BioAssay data set” (2004)
